Patent US20110269699A1, “CANCER THERAPY” (priority 2008, published 2011)

Key:
Assay type in all cases: cell-based, mouse
4242Eμ-myc lymphomas = test: In vitro cell death analysis (parental control of the Bcl-XL experiment)
Experimental: (§1) To determine if increased expression of Bcl-XL could confer resistance to romidepsin, 4242Eμ-myc/Bcl-XL lymphomas were produced and tested for sensitivity to HDACi.
Eμ-myc lymphoma cells (5×10^5/mL) were incubated in the presence of the indicated compounds for 20 h in 1 mL cell culture medium in 24-well plates (Greiner Bio-One). Viability of cells as measured by trypan blue exclusion assay, propidium iodide uptake, Annexin V staining, cell cycle analysis, or tetramethylrhodamine ethyl ester staining were done as described (Lindemann et al., Proc. Nat. Acad. Sci. USA 104:8071-8078, 2007).

[1] = test system: acetylated histones H3 and H4; test: Western blot analysis of histone acetylation status; settings: 4242Eμ-myc lymphomas; 3.0 nmol/L romidepsin, 0.1 mmol/L oxamflatin; 24-h time course
Experimental: Eμ-myc lymphoma cells were lysed in lysis buffer [0.15 mol/L NaCl, 10 mmol/L Tris-HCl (pH 7.4), 5 μmol/L EDTA, 1% Triton X-100] supplemented with protease inhibitors (leupeptin, pepstatin, and phenylmethylsulfonyl fluoride; Sigma-Aldrich) as described previously (Lindemann et al., Proc. Nat. Acad. Sci. USA 104:8071-8078, 2007). Proteins (30-50 μg) were separated on 10% or 15% SDS polyacrylamide gels electroblotted onto Immobilon-P […] membranes (Millipore). Membranes were incubated with the following antibodies: anti-mouse Bcl-2 (BD PharMingen), anti-mouse Bcl-XL (BD PharMingen), anti-mouse Bcl-w (Chemicon Australia), anti-mouse Mcl-1 (Rockland), anti-mouse A1 (Sapphire Biosciences), anti-Flag tag (Sigma-Aldrich), anti-acetylated histone H3 and antiacetylated histone H4 (Upstate Biosystems), anti-β actin (Sigma-Aldrich), and anti-tubulin (Sigma-Aldrich) overnight at 4° C. followed by subsequent incubation with horseradish peroxidase-conjugated secondary antibodies (DAKO) Immunoreactive bands were visualized by enhanced chemiluminescence (Amersham).

Eμ-myc lymphomas = test: In vitro cell death analysis (propidium iodide staining, loss of MOMP)
Experimental: (§2) Three different primary Eμ-myc lymphomas overexpressing Bcl-2 and control vector-transduced Eμ-myc cells were tested for sensitivity to the histone deacetylase inhibitors (HDACi) oxamflatin and romidepsin.
(§3) The primary function of prosurvival Bcl-2 proteins is to inhibit the activity of Bak and Bax proteins and thereby protect the mitochondrial membrane from damage (Cory et al., Nat. Rev. Cancer 2:647-656, 2002). To determine if the induction of apoptosis mediated by romidepsin in 4242Eμ-myc/Bcl-2 and 229Eμ-myc/Bcl-2 lymphomas was via perturbation of the mitochondrial membrane or through some other mechanism, HDACi-induced mitochondrial outer membrane permeabilization (MOMP) was quantitated by staining with tetramethylrhodamine ethyl ester (Molecular Probes).
(§4) […] Viability of cells as measured by trypan blue exclusion assay, propidium iodide uptake, Annexin V staining, cell cycle analysis, or tetramethylrhodamine ethyl ester staining were done as described (Lindemann et al., Proc. Nat. Acad. Sci. USA 104:8071-8078, 2007).

Eμ-myc/Bcl-2 lymphomas = test: as above
Experimental: as §2, §3, §4

[2] = test system: 4242Eμ-myc/Bcl-2 lymphomas; test: Cell cycle analysis of Eμ-myc/Bcl-2 cells treated with HDACi; settings: 4242/Bcl-2
Experimental: (§5) Next, the cell cycle profiles of Eμ-myc/Bcl-2 lymphomas treated with oxamflatin and romidepsin over 3 days were assessed.
as §4

[3] = test system: 226Eμ-myc/Bcl-2 lymphomas; test: as above; settings: 226/Bcl-2
Experimental: as §5, §4

[4] = test system: 4242Eμ-myc/Bcl-XL lymphomas; test: In vitro cell death analysis of Bcl-XL overexpressing lymphomas
Excerpt: as §1, §4

[5] = increasing concentrations over 24 h

Oxamflatin was tested, and the “plasma membrane integrity and mitochondrial function” value (4242Eμ-myc lymphomas; [5]) was “dose-dependent loss of plasma membrane integrity and mitochondrial function”, the “cell cycle analysis: DNA fragmentation” value (4242Eμ-myc lymphomas; increasing doses) was “DNA fragmentation occurred” and the “cell killing in time course” value (4242Eμ-myc lymphomas; parental Eμ-myc lymphomas, within the first 24 h, 3 nmol/L romidepsin or 0.1 μmol/L oxamflatin) was “effectively killed”. The “acetylation of histones H3 and H4” value [1] was “induced equivalent acetylation of histones H3 and H4”, the “cell killing (outer cell membrane damage, loss of mitochondrial membrane potential)” value (Eμ-myc lymphomas; 24-h dose-response assay) was “could effectively kill” and the “concentration of HDACi required to kill ˜70% of Eμ-myc lymphomas following 24-h treatment” value (Eμ-myc lymphomas; 24-h treatment) was 0.1 µmol/L. For the same substance, the “cell killing in time course” value (Eμ-myc/Bcl-2 lymphomas; 0.1 μmol/L, 72 h of continuous exposure) was “conferred resistance to oxamflatin”, the “cell killing (outer cell membrane damage, loss of mitochondrial membrane potential)” value (Eμ-myc/Bcl-2 lymphomas; 24-h dose-response assay, Bcl-2 overexpressing) was “but not Eμ-myc/Bcl-2 lymphomas” and the “% G1” value ([2]; 24 hr) was 59.4%. The “% G2/M” value ([2]; 24 hr) was 18.0%, the “% S phase” value ([2]; 24 hr) was 8.2% and the “% subG1” value ([2]; 24 hr) was 8.4%. For the same substance, the “% G1” value ([2]; 48 hr) was 62.3%, the “% G2/M” value ([2]; 48 hr) was 15.3% and the “% S phase” value ([2]; 48 hr) was 8.4%. For the same substance, the “% subG1” value ([2]; 48 hr) was 5.9%, the “% G1” value ([2]; 72 hr) was 66.7% and the “% G2/M” value ([2]; 72 hr) was 15.8%. For the same substance, the “% S phase” value ([2]; 72 hr) was 9.7%, the “% subG1” value ([2]; 72 hr) was 4.6% and the “% G1” value ([3]; 24 hr) was 50.0%. The “% G2/M” value ([3]; 24 hr) was 28.8%, the “% S phase” value ([3]; 24 hr) was 14.4% and the “% subG1” value ([3]; 24 hr) was 2.7%. The “% G1” value ([3]; 48 hr) was 62.6%, the “% G2/M” value ([3]; 48 hr) was 21.4% and the “% S phase” value ([3]; 48 hr) was 10.8%. The “% subG1” value ([3]; 48 hr) was 2.6%, the “% G1” value ([3]; 72 hr) was 78.2% and the “% G2/M” value ([3]; 72 hr) was 12.0%. The “% S phase” value ([3]; 72 hr) was 2.5%, the “% subG1” value ([3]; 72 hr) was 6.5% and the “plasma membrane integrity and mitochondrial function” value [4, 5] was “unaffected”. The cell cycle analysis ([4]; increasing doses) was “arrested in the G1 phase”.
